Test results from patent US20250289842A1, “Processes for Making NAG-25, a Carbohydrate Targeting Moiety, and its Intermediates” (AMGEN INC., priority 2022, published 2025).

Experiment: High Throughput Experimentation (HTE) solubility screen, solvent/heptane mixtures for crystallization
Assay type: physicochemical
Details: 20° C., 2-MeTHF
Method: A High Throughput Experimentation (HTE) solubility screen was conducted to determine the solvent/anti-solvent combination for the crystallization and align the reaction solvent with the crystallization solvent. Solubility studies of t-Butyl Core at 20° C. were conducted for various percentages of heptane. […] The solubility screen pointed to MTBE/heptane being one example of a useful solvent mixture for crystallization because of its gradual solubility curve.

solubility of t-Butyl Core (MIBK or IPAc with 80% heptane): 50 mg/mL | solubility of t-Butyl Core (MIBK or IPAc with 90% heptane): 10 mg/mL
SMILES: CC(C)(C)OC(=O)CC[C@H](NC(=O)CC[C@H](NC(=O)OCc1ccccc1)C(=O)OC(C)(C)C)C(=O)OC(C)(C)C [t-Butyl Core]
